Structures can show the parent of a compound that is named as a salt.
target: T1, BRD4 BD2 (Homo sapiens, UniProt O60885, Y97A); test: BRD4 BD2 mutant TR-FRET competition assay; type: binding; details: read-out: pIC50 in the BRD4 BD2 assay (converted)
T1 construct: BRD4 (1-477) (Y97A) and (Y390A); made in house; host or cells: E. coli (pET15b vector)

| IC50 | Structure (SMILES) |
| --- | --- |
| ≤ 100 nM | CNC(=O)c1cc(C(=O)NCCCC2(O)CCNCC2)cn(Cc2ccccc2)c1=O [Example 57, 1-Benzyl-N^5-(3-(4-hydroxypiperidin-4-yl)propyl)-N^3-methyl-2-oxo-1,2-dihydropyridine-3,5-dicarboxamide] |
| 100 to 1000 nM | CNC(=O)c1cc(C(=O)NCCCC2CCCN(C(=O)OC(C)(C)C)C2)cn(Cc2ccccc2)c1=O (stereo not drawn) [Example 59, tert-Butyl 3-(3-(1-benzyl-5-(methylcarbamoyl)-6-oxo-1,6-dihydropyridine-3-carboxamido)propyl)piperidine-1-carboxylate] |
| ≤ 100 nM | CNC(=O)c1cc(C(=O)NCCCC2(F)CCNCC2)cn(Cc2ccccc2)c1=O [Example 61, 1-Benzyl-N^5-(3-(4-fluoropiperidin-4-yl)propyl)-N^3-methyl-2-oxo-1,2-dihydropyridine-3,5-dicarboxamide hydrochloride] |
| 100 to 1000 nM | CNC(=O)c1cc(C(=O)NCCC2CN(C)CCO2)cn(Cc2ccccc2)c1=O (stereo not drawn) [Example 64, 1-benzyl-N^3-methyl-N^5-(2-(4-methylmorpholin-2-yl)ethyl)-2-oxo-1,2-dihydropyridine-3,5-dicarboxamide] |
| 100 to 1000 nM | CNC(=O)c1cc(C(=O)NCCC2CN(C(C)=O)CCO2)cn(Cc2ccccc2)c1=O (stereo not drawn) [Example 65, N^5-(2-(4-acetylmorpholin-2-yl)ethyl)-1-benzyl-N^3-methyl-2-oxo-1,2-dihydropyridine-3,5-dicarboxamide] |
| 100 to 1000 nM | CNC(=O)c1cc(C(=O)NCCC2CNCCO2)cn(Cc2ccccc2)c1=O (stereo not drawn) [Example 66, 1-benzyl-N^3-methyl-N^5-(2-(morpholin-2-yl)ethyl)-2-oxo-1,2-dihydropyridine-3,5-dicarboxamide hydrochloride] |
| 100 to 1000 nM | CNC(=O)c1cc(C(=O)NCCOC2CCNC2)cn(Cc2ccccc2)c1=O (stereo not drawn) [Example 67, 1-benzyl-N3-methyl-2-oxo-N5-(2-(pyrrolidin-3-yloxy)ethyl)-1,2-dihydropyridine-3,5-dicarboxamide, hydrochloride] |
| 100 to 1000 nM | CNC(=O)c1cc(C(=O)NCCOC2CCCNC2)cn(Cc2ccccc2)c1=O (stereo not drawn) [Example 68, 1-benzyl-N^3-methyl-2-oxo-N^5-(2-(piperidin-3-yloxy)ethyl)-1,2-dihydropyridine-3,5-dicarboxamide] |
| ≤ 100 nM | CNC(=O)c1cc(C(=O)N[C@H]2[C@@H]3COC[C@@H]32)cn(Cc2ccccc2)c1=O [Example 69, 1-Benzyl-N^5-((1R,5S,6r)-3-oxabicyclo[3.1.0]hexan-6-yl)-N^3-methyl-2-oxo-1,2-dihydropyridine-3,5-dicarboxamide] |
| ≤ 100 nM | CNC(=O)c1cc(C(=O)NCCCC2CCCN(C)C2)cn(Cc2ccccc2)c1=O (stereo not drawn) [Example 70, 1-Benzyl-N^3-methyl-N^5-(3-(1-methylpiperidin-3-yl)propyl)-2-oxo-1,2-dihydropyridine-3,5-dicarboxamide] |
| ≤ 100 nM | CNC(=O)c1cc(C(=O)NCCCC2CCCN(CCF)C2)cn(Cc2ccccc2)c1=O (stereo not drawn) [Example 71] |
| ≤ 100 nM | CNC(=O)c1cc(C(=O)N[C@H]2[C@@H]3COC[C@@H]32)cn(Cc2cccc(OC)c2)c1=O [Example 72, N5-((1R,5S,6r)-3-Oxabicyclo[3.1.0]hexan-6-yl)-1-(3-methoxybenzyl)-N^3-methyl-2-oxo-1,2-dihydropyridine-3,5-dicarboxamide] |
| ≤ 100 nM | CNC(=O)c1cc(C(=O)NCCCC2CCN(C(C)=O)CC2)cn(Cc2cccc3[nH]ccc23)c1=O [Example 74] |
| ≤ 100 nM | CNC(=O)c1cc(C(=O)N[C@H]2[C@@H]3CN(C(=O)OC(C)(C)C)C[C@@H]32)cn(Cc2ccccc2)c1=O [Example 75, (1R,5S,6s)-Tert-butyl 6-(1-benzyl-5-(methylcarbamoyl)-6-oxo-1,6-dihydropyridine-3-carboxamido)-3-azabicyclo[3.1.0]hexane-3-carboxylate] |
| ≤ 100 nM | CNC(=O)c1cc(C(=O)N[C@H]2[C@@H]3CNC[C@@H]32)cn(Cc2ccccc2)c1=O [Example 76, 1-Benzyl-N^5-((1R,5S,6s)-3-azabicyclo[3.1.0]hexan-6-yl)-N^3-methyl-2-oxo-1,2-dihydropyridine-3,5-dicarboxamide] |
